Laboratory results published in patent publication US20230374034A1, “NOVEL BICYCLIC COMPOUNDS” (PRISM BIOLAB CO., LTD., priority 2020, published 2023).

Each compound was assayed on NICD (Notch intracellular domain) CSL-bla reporter in HeLa cells (assay: Notch assay (CellSensor T-REx NICD CSL-bla HeLa beta-lactamase reporter; Method 1 / Method 2)). Details: Homo sapiens, 10 μM compound, Method 2 (40 nL of 1000× compound added to plate with Echo), read-out: inhibiton (%) at 10 μM.
Assay type: cell-based
How it was run: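 HeLa cells carrying doxycycline-inducible NICD and a CSL-driven beta-lactamase reporter, 10^3 cells/well, were treated with compound plus doxycycline for 16-20 h at 37 °C. CCF4-AM substrate was loaded for 4 h at room temperature; background-subtracted blue (460 nm)/green (530 nm) emission ratio taken per well.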

Structure (SMILES) | inhibition at 10 µM
CCCC[C@@H](C(=O)NCCC(C)C)N1CC2N(C(=O)OCCc3ccc(O)cc3)O[C@H](CC(C)C)C(=O)N2[C@@H](Cc2ccc(O)cc2)C1=O (stereo partly drawn) [Compound I-97, 4-hydroxyphenethyl (3R,6S)-6-(4-hydroxybenzyl)-3-isobutyl-8-((S)-1-(isopentylamino)-1-oxohexan-2-yl)-4,7-dioxohexahydropyrazino[2,1-c][1,2,4]oxadiazine-1(6H)-carboxylate] | 57.3%
CC(C)CCCNC(=O)[C@H](Cc1ccc(O)cc1)N1CC2N(C(=O)OCCC(C)C)O[C@H](CC(C)C)C(=O)N2[C@@H](Cc2ccc(O)cc2)C1=O (stereo partly drawn) [Compound I-98, isopentyl (3R,6S)-6-(4-hydroxybenzyl)-8-((S)-3-(4-hydroxyphenyl)-1-((4-methylpentyl)amino)-1-oxopropan-2-yl)-3-isobutyl-4,7-dioxohexahydropyrazino [2,1-c][1,2,4]oxadiazine-1(6H)-carboxylate] | 60.4%
CC(C)CCCNC(=O)[C@H](Cc1ccc(O)cc1)N1CC2N(C(=O)OCCc3ccccc3)O[C@H](CC(C)C)C(=O)N2[C@@H](Cc2ccc(O)cc2)C1=O (stereo partly drawn) [Compound I-99, phenethyl (3R,6S)-6-(4-hydroxybenzyl)-8-((S)-3-(4-hydroxyphenyl)-1-((4-methylpentyl)amino)-1-oxopropan-2-yl)-3-isobutyl-4,7-dioxohexahydropyrazino [2,1-c][1,2,4]oxadiazine-1(6H)-carboxylate] | 58%
CCCCCOC(=O)N1O[C@H](CC(C)C)C(=O)N2C1CN([C@@H](Cc1ccc(O)cc1)C(=O)NCCCC(C)C)C(=O)[C@@H]2Cc1ccc(O)cc1 (stereo partly drawn) [Compound I-100, pentyl (3R,6S)-6-(4-hydroxybenzyl)-8-((S)-3-(4-hydroxyphenyl)-1-((4-methylpentyl)amino)-1-oxopropan-2-yl)-3-isobutyl-4,7-dioxohexahydropyrazino [2,1-c][1,2,4]oxadiazine-1(6H)-carboxylate] | 63.8%
CCCC[C@@H](C(=O)NCCCC(C)C)N1CC2N(C(=O)OCCc3ccc(O)cc3)O[C@H](CC(C)C)C(=O)N2[C@@H](Cc2ccc(O)cc2)C1=O (stereo partly drawn) [Compound I-101, 4-hydroxyphenethyl (3R,6S)-6-(4-hydroxybenzyl)-3-isobutyl-8-((S)-1-((4-methylpentyl)amino)-1-oxohexan-2-yl)-4,7-dioxohexahydropyrazino[2,1-c][1,2,4]oxadiazine-1(6H)-carboxylate] | 54.4%
CC(C)C[C@H]1ON(C(=O)OCCc2ccccc2)C2CN([C@@H](Cc3ccc(O)cc3)C(=O)NCCc3ccccc3)C(=O)[C@H](Cc3ccc(O)cc3)N2C1=O (stereo partly drawn) [Compound I-102, phenethyl (3R,6S)-6-(4-hydroxybenzyl)-8-((S)-3-(4-hydroxyphenyl)-1-oxo-1-(phenethylamino)propan-2-yl)-3-isobutyl-4,7-dioxohexahydropyrazino[2,1-c][1,2,4]oxadiazine-1(6H)-carboxylate] | 67.3%
CCCC[C@@H](C(=O)NCCc1ccccc1)N1CC2N(C(=O)OCCc3ccc(O)cc3)O[C@H](CC(C)C)C(=O)N2[C@@H](Cc2ccc(O)cc2)C1=O (stereo partly drawn) [Compound I-103, 4-hydroxyphenethyl (3R,6S)-6-(4-hydroxybenzyl)-3-isobutyl-4,7-dioxo-8-((S)-1-oxo-1-(phenethylamino)hexan-2-yl)hexahydropyrazino[2,1-c][1,2,4]oxadiazine-1(6H)-carboxylate] | 59.9%
CC(C)CCCNC(=O)[C@H](CC(C)C)N1CC2N(C(=O)OCCc3ccc(O)cc3)O[C@H](Cc3ccccc3)C(=O)N2[C@@H](Cc2ccc(O)cc2)C1=O (stereo partly drawn) [Compound I-104, 4-hydroxyphenethyl (3R,6S)-3-benzyl-6-(4-hydroxybenzyl)-8-((S)-4-methyl-1-((4-methylpentyl)amino)-1-oxopentan-2-yl)-4,7-dioxohexahydropyrazino[2,1-c][1,2,4]oxadiazine-1(6H)-carboxylate] | 70.2%
CC(C)CCOC(=O)N1O[C@H](Cc2ccccc2)C(=O)N2C1CN([C@@H](Cc1ccccc1)C(=O)NCCc1ccccc1)C(=O)[C@@H]2Cc1ccc(O)cc1 (stereo partly drawn) [Compound I-105, isopentyl (3R,6S)-3-benzyl-6-(4-hydroxybenzyl)-4,7-dioxo-8-((S)-1-oxo-1-(phenethylamino)-3-phenylpropan-2-yl)hexahydropyrazino[2,1-c][1,2,4]oxadiazine-1(6H)-carboxylate] | 60.9%
CC(C)CCOC(=O)N1O[C@H](Cc2ccccc2)C(=O)N2C1CN([C@@H](Cc1ccccc1)C(=O)NCCCO)C(=O)[C@@H]2Cc1ccc(O)cc1 (stereo partly drawn) [Compound I-106, isopentyl (3R,6S)-3-benzyl-6-(4-hydroxybenzyl)-8-((S)-1-((3-hydroxypropyl)amino)-1-oxo-3-phenylpropan-2-yl)-4,7-dioxohexahydropyrazino[2,1-c][1,2,4]oxadiazine-1(6H)-carboxylate] | 52%
CC(C)CCNC(=O)[C@H](Cc1ccc(O)cc1)N1CC2N(C(=O)OCCC(C)C)O[C@H](Cc3ccccc3)C(=O)N2[C@@H](Cc2ccc(O)cc2)C1=O (stereo partly drawn) [Compound I-107, isopentyl (3R,6S)-3-benzyl-6-(4-hydroxybenzyl)-8-((S)-3-(4-hydroxyphenyl)-1-(isopentylamino)-1-oxopropan-2-yl)-4,7-dioxohexahydropyrazino[2,1-c][1,2,4]oxadiazine-1(6H)-carboxylate] | 61.1%
CC(C)CCNC(=O)[C@H](Cc1ccc(O)cc1)N1CC2N(C(=O)OCCc3ccc(O)cc3)O[C@H](Cc3ccccc3)C(=O)N2[C@@H](Cc2ccc(O)cc2)C1=O (stereo partly drawn) [Compound I-108, 4-hydroxyphenethyl (3R,6S)-3-benzyl-6-(4-hydroxybenzyl)-8-((S)-3-(4-hydroxyphenyl)-1-(isopentylamino)-1-oxopropan-2-yl)-4,7-dioxohexahydropyrazino[2,1-c][1,2,4]oxadiazine-1(6H)-carboxylate] | 72.4%
CCCC[C@@H](C(=O)NCCC(C)C)N1CC2N(C(=O)OCCc3ccc(O)cc3)O[C@H](Cc3ccccc3)C(=O)N2[C@@H](Cc2ccc(O)cc2)C1=O (stereo partly drawn) [Compound I-109, 4-hydroxyphenethyl (3R,6S)-3-benzyl-6-(4-hydroxybenzyl)-8-((S)-1-(isopentylamino)-1-oxohexan-2-yl)-4,7-dioxohexahydropyrazino[2,1-c][1,2,4]oxadiazine-1(6H)-carboxylate] | 74%
CC(C)CCCNC(=O)[C@H](Cc1ccc(O)cc1)N1CC2N(C(=O)OCCc3ccc(O)cc3)O[C@H](Cc3ccccc3)C(=O)N2[C@@H](Cc2ccc(O)cc2)C1=O (stereo partly drawn) [Compound I-110, 4-hydroxyphenethyl (3R,6S)-3-benzyl-6-(4-hydroxybenzyl)-8-((S)-3-(4-hydroxyphenyl)-1-((4-methylpentyl)amino)-1-oxopropan-2-yl)-4,7-dioxohexahydropyrazino[2,1-c][1,2,4]oxadiazine-1(6H)-carboxylate] | 75.2%
CCCCCOC(=O)N1O[C@H](Cc2ccccc2)C(=O)N2C1CN([C@@H](Cc1ccc(O)cc1)C(=O)NCCCC(C)C)C(=O)[C@@H]2Cc1ccc(O)cc1 (stereo partly drawn) [Compound I-111, pentyl (3R,6S)-3-benzyl-6-(4-hydroxybenzyl)-8-((S)-3-(4-hydroxyphenyl)-1-((4-methylpentyl)amino)-1-oxopropan-2-yl)-4,7-dioxohexahydropyrazino[2,1-c][1,2,4]oxadiazine-1(6H)-carboxylate] | 53.9%
CCCC[C@@H](C(=O)NCCCC(C)C)N1CC2N(C(=O)OCCc3ccc(O)cc3)O[C@H](Cc3ccccc3)C(=O)N2[C@@H](Cc2ccc(O)cc2)C1=O (stereo partly drawn) [Compound I-112, 4-hydroxyphenethyl (3R,6S)-3-benzyl-6-(4-hydroxybenzyl)-8-((S)-1-((4-methylpentyl)amino)-1-oxohexan-2-yl)-4,7-dioxohexahydropyrazino[2,1-c][1,2,4]oxadiazine-1(6H)-carboxylate] | 54.2%
CCCCCOC(=O)N1O[C@H](Cc2ccccc2)C(=O)N2C1CN([C@@H](Cc1ccc(O)cc1)C(=O)NCCc1ccccc1)C(=O)[C@@H]2Cc1ccc(O)cc1 (stereo partly drawn) [Compound I-113, pentyl (3R,6S)-3-benzyl-6-(4-hydroxybenzyl)-8-((S)-3-(4-hydroxyphenyl)-1-oxo-1-(phenethylamino)propan-2-yl)-4,7-dioxohexahydropyrazino[2,1-c][1,2,4]oxadiazine-1(6H)-carboxylate] | 62.9%
CC(C)CCOC(=O)N1O[C@H](Cc2ccc(O)cc2)C(=O)N2C1CN([C@@H](CC(C)C)C(=O)NCCc1ccccc1)C(=O)[C@@H]2Cc1ccc(O)cc1 (stereo partly drawn) [Compound I-114, isopentyl (3R,6S)-3,6-bis(4-hydroxybenzyl)-8-((S)-4-methyl-1-oxo-1-(phenethylamino)pentan-2-yl)-4,7-dioxohexahydropyrazino[2,1-c][1,2,4]oxadiazine-1(6H)-carboxylate] | 56.3%
CC(C)C[C@@H](C(=O)NCCc1ccccc1)N1CC2N(C(=O)OCCc3ccccc3)O[C@H](Cc3ccc(O)cc3)C(=O)N2[C@@H](Cc2ccc(O)cc2)C1=O (stereo partly drawn) [Compound I-115, phenethyl (3R,6S)-3,6-bis(4-hydroxybenzyl)-8-((S)-4-methyl-1-oxo-1-(phenethylamino)pentan-2-yl)-4,7-dioxohexahydropyrazino[2,1-c][1,2,4]oxadiazine-1(6H)-carboxylate] | 51.1%
O=C(NCCc1ccccc1)[C@H](Cc1ccccc1)N1CC2N(C(=O)OCCc3ccc(O)cc3)O[C@H](Cc3ccc(O)cc3)C(=O)N2[C@@H](Cc2ccc(O)cc2)C1=O (stereo partly drawn) [Compound I-116, 4-hydroxyphenethyl (3R,6S)-3,6-bis(4-hydroxybenzyl)-4,7-dioxo-8-((S)-1-oxo-1-(phenethylamino)-3-phenylpropan-2-yl)hexahydropyrazino[2,1-c][1,2,4]oxadiazine-1(6H)-carboxylate] | 62.5%
